Reference: patent publication US10273224B2, “Substituted pyrimidine compounds, compositions and medicinal applications thereof” (JUBILANT BIOSYS LIMITED, priority 2013, dated 2019)

Each compound was assayed against T1, EGFR (L858R & T790M) (Homo sapiens, UniProt P00533, L858R/T790M) (assay: EGFR (L858R & T790M) inhibition assay, HTRF method). Settings: biochemical HTRF; EGFR (T790M/L858R) 2.5 nM, ATP 5 μM, 60 min room temperature.
T1 construct: GST; purchased Proqinase
How it was run: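 GST-EGFR T790M/L858R (2.5 nM) phosphorylating biotinylated gastrin precursor peptide (0.5 μM) with 5 μM ATP in HEPES pH 7.4/Mg/Mn buffer, 60 min room temperature; compounds from 10 μM top. HTRF read-out (Eu anti-pTyr, SA-APC), 665/620 nm; IC50 from % inhibition.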

T1 sequence (P00533 25-1210 T790M/L858R): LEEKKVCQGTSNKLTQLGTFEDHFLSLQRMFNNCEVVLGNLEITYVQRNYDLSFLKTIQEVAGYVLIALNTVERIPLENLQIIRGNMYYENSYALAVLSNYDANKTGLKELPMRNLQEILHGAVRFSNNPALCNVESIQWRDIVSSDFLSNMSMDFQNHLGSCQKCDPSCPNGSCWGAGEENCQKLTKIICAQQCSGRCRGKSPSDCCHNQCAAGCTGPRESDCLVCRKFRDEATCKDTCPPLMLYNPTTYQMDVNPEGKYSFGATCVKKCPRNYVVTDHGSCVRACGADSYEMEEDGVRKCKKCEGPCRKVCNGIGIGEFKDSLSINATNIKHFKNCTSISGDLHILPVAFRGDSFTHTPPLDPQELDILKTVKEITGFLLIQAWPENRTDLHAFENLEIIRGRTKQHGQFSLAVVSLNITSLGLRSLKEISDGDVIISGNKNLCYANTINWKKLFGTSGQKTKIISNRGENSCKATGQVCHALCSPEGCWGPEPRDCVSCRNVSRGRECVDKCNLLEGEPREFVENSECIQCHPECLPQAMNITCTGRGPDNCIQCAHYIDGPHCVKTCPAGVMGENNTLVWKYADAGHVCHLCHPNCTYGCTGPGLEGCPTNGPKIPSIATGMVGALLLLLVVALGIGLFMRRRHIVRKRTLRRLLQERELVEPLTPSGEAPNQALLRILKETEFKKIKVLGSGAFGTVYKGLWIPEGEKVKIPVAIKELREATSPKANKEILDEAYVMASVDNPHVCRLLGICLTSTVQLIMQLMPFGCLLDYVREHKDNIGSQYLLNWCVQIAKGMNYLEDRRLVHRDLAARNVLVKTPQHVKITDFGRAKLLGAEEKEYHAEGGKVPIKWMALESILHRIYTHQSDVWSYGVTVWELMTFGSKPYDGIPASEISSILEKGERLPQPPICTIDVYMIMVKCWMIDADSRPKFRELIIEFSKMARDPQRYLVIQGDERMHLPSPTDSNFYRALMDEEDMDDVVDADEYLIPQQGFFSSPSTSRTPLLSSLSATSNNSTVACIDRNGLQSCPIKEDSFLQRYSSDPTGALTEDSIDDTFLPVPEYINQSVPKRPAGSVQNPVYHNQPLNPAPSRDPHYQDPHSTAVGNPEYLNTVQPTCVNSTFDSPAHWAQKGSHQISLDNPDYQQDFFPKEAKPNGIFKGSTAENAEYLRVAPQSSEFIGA

Row | Structure (SMILES) | IC50 [nM]
1 | CN(C)C/C=C/C(=O)Nc1cccc(Nc2nc(Nc3cnn(C4CCN(C)CC4)c3)ncc2Cl)c1 [Compound I-53, (E)-N-(3-((5-chloro-2-((1-(1-methylpiperidin-4-yl)-1H-pyrazol-4-yl)amino)pyrimidin-4-yl)amino)phenyl)-4-(dimethylamino)but-2-enamide] | > 100
2 | C=CC(=O)Nc1cccc(Nc2nc(Nc3cnn(C4CCN(C)CC4)c3)ncc2F)c1 [Compound I-18, N-(3-((5-fluoro-2-((1-(1-methylpiperidin-4-yl)-1H-pyrazol-4-yl)amino)pyrimidin-4-yl)amino)phenyl)acrylamide] | 10 to 100
3 | C=CC(=O)Nc1cc(Nc2nc(Nc3cnn(C)c3)ncc2Cl)c(F)cc1F [Compound I-68, N-(5-((5-chloro-2-((1-methyl-1H-pyrazol-4-yl)amino)pyrimidin-4-yl)amino)-2,4-difluorophenyl)acrylamide] | 10 to 100
4 | C=CC(=O)Nc1cccc(Nc2nc(Nc3cn(C)cn3)ncc2Cl)c1 [Compound I-60, N-(3-((5-chloro-2-((1-methyl-1H-imidazol-4-yl)amino)pyrimidin-4-yl)amino)phenyl)acrylamide] | 10 to 100
5 | CN1CCC(n2cc(Nc3ncc(Cl)c(Nc4cccc(NC(=O)C=C5CCOCC5)c4)n3)cn2)CC1 [Compound I-26, N-(3-((5-chloro-2-((1-(1-methylpiperidin-4-yl)-1H-pyrazol-4-yl)amino)pyrimidin-4-yl)amino)phenyl)-2-(dihydro-2H-pyran-4(3H)-ylidene)acetamide] | > 100
6 | C=CC(=O)NC1CCCC(Nc2nc(Nc3cc(Cl)n(C)n3)ncc2Cl)C1 (centres unmarked) [Compound I-97, N-(3-((5-chloro-2-((5-chloro-1-methyl-1H-pyrazol-3-yl)amino)pyrimidin-4-yl)amino)cyclohexyl)acrylamide] | > 100
7 | C=CC(=O)Nc1cc(Nc2nc(Nc3cnn(C4CCN(C)CC4)c3)ncc2Cl)ccc1F [Compound I-67, N-(5-((5-chloro-2-((1-(1-methylpiperidin-4-yl)-1H-pyrazol-4-yl)amino)pyrimidin-4-yl)amino)-2-fluorophenyl)acrylamide] | 10 to 100
8 | C=CC(=O)NC1CCCC(Nc2nc(Nc3cnn(C)c3)ncc2Cl)C1 (centres unmarked) [Compound I-92, N-(3-((5-chloro-2-((1-methyl-1H-pyrazol-4-yl)amino)pyrimidin-4-yl)amino)cyclohexyl)acrylamide] | 10 to 100
9 | C=CS(=O)(=O)Nc1cccc(Nc2nc(Nc3cnn(C)c3)ncc2Cl)c1 [Compound I-65, N-(3-((5-chloro-2-((1-methyl-1H-pyrazol-4-yl)amino)pyrimidin-4-yl)amino)phenyl)ethenesulfonamide] | 10 to 100
10 | C=CC(=O)Nc1cccc(Oc2nc(Nc3cnn(C4CCN(C)CC4)c3)ncc2Cl)c1 [Compound I-77, N-(3-((5-chloro-2-((1-(1-methylpiperidin-4-yl)-1H-pyrazol-4-yl)amino)pyrimidin-4-yl)oxy)phenyl)acrylamide] | 10 to 100
11 | C=CC(=O)Nc1cccc(Nc2nc(Nc3cnn(C(C)C)c3)ncc2Cl)c1 [Compound I-4, N-(3-((5-chloro-2-((1-isopropyl-1H-pyrazol-4-yl)amino)pyrimidin-4-yl)amino)phenyl)acrylamide] | 10 to 100
12 | C=CC(=O)Nc1cccc(Nc2nc(Nc3cnn(C4CCN(C)CC4)c3)ncc2C)c1 [Compound I-13, N-(3-((5-methyl-2-((1-(1-methylpiperidin-4-yl)-1H-pyrazol-4-yl)amino)pyrimidin-4-yl)amino)phenyl)acrylamide] | 10 to 100
13 | C=CC(=O)Nc1cccc(Oc2nc(Nc3cnn(C(C)C)c3)ncc2Cl)c1 [Compound I-79, N-(3-((5-chloro-2-((1-isopropyl-1H-pyrazol-4-yl)amino)pyrimidin-4-yl)oxy)phenyl)acrylamide] | 10 to 100
14 | C=CC(=O)Nc1cccc(Nc2nc(Nc3cnn(C)c3C)ncc2Cl)n1 (single isomer, unassigned) [Compound I-74, N-(6-((5-chloro-2-((1,5-dimethyl-1H-pyrazol-4-yl)amino)pyrimidin-4-yl)amino)pyridin-2-yl)acrylamide] | > 100
15 | C=CC(=O)Nc1cccc(Nc2nc(Nc3cnn(S(=O)(=O)C4CC4)c3)ncc2Cl)c1 [Compound I-22, N-(3-((5-chloro-2-((1-(cyclopropylsulfonyl)-1H-pyrazol-4-yl)amino)pyrimidin-4-yl)amino)phenyl)acrylamide] | 10 to 100
16 | C=CC(=O)Nc1cccc(Nc2nc(Nc3cnn(C4COC4)c3)ncc2Cl)c1 [Compound I-31, N-(3-((5-chloro-2-((1-(oxetan-3-yl)-1H-pyrazol-4-yl)amino)pyrimidin-4-yl)amino)phenyl)acrylamide] | 10 to 100
17 | CN(C)C/C=C/C(=O)NCC1CCCC(Nc2nc(Nc3cnn(C)c3)ncc2Cl)C1 (centres unmarked) [Compound I-109, (E)-N-((3-((5-chloro-2-((1-methyl-1H-pyrazol-4-yl)amino)pyrimidin-4-yl)amino)cyclohexyl)methyl)-4-(dimethylamino)but-2-enamide] | > 100
18 | Cn1cc(Nc2ncc(Cl)c(Nc3cccc(N4C(=O)C=CC4=O)c3)n2)cn1 [Compound I-63, 1-(3-((5-chloro-2-((1-methyl-1H-pyrazol-4-yl)amino)pyrimidin-4-yl)amino)phenyl)-1H-pyrrole-2,5-dione] | > 100
19 | C=CC(=O)Nc1cccc(Nc2nc(Nc3cn(C)nc3C)ncc2Cl)n1 (single isomer, unassigned) [Compound I-73, N-(6-((5-chloro-2-((1,3-dimethyl-1H-pyrazol-4-yl)amino)pyrimidin-4-yl)amino)pyridin-2-yl)acrylamide] | 10 to 100
20 | C=CC(=O)Nc1cccc(Nc2nc(Nc3cnn(C4CCN(C)CC4)c3)ncc2Cl)c1 [Compound I-1, N-(3-((5-chloro-2-((1-(1-methylpiperidin-4-yl)-1H-pyrazol-4-yl)amino)pyrimidin-4-yl)amino)phenyl)acrylamide] | < 10
21 | COCCn1cc(Nc2ncc(Cl)c(Nc3cccc(NC(=O)C=C4CCCCC4)c3)n2)cn1 [Compound I-6, N-(3-((5-chloro-2-((1-(2-methoxyethyl)-1H-pyrazol-4-yl)amino)pyrimidin-4-yl)amino)phenyl)-2-cyclohexylideneacetamide] | > 100
22 | C=CC(=O)Nc1ccc(F)c(Nc2nc(Nc3cn(C)nc3Cl)ncc2Cl)c1 [Compound I-58, N-(3-((5-chloro-2-((3-chloro-1-methyl-1H-pyrazol-4-yl)amino)pyrimidin-4-yl)amino)-4-fluorophenyl)acrylamide] | < 10

Results, then the compound that gave them:

Row | IC50 [nM] | Structure (SMILES)
23 | > 100 | C=CC(=O)N1CCCC(Nc2nc(Nc3cnn(C)c3)ncc2Cl)C1 (single isomer, unassigned) [II-1 (Enantiomer 1), 1-(3-((5-chloro-2-((1-methyl-1H-pyrazol-4-yl)amino)pyrimidin-4-yl)amino)piperidin-1-yl)prop-2-en-1-one]
24 | > 100 | C=CC(=O)N1CCCC(Oc2nc(Nc3cnn(C)c3)ncc2Cl)C1 (single isomer, unassigned) [II-13 (Enantiomer 2), 1-(3-((5-chloro-2-((1-methyl-1H-pyrazol-4-yl)amino)pyrimidin-4-yl)oxy)piperidin-1-yl)prop-2-en-1-one]
25 | 10 to 100 | C=CC(=O)Nc1ccc(F)c(Nc2nc(Nc3cc(C)no3)ncc2Cl)c1 [Compound I-118, N-(3-((5-chloro-2-((3-methylisoxazol-5-yl)amino)pyrimidin-4-yl)amino)-4-fluorophenyl)acrylamide]
26 | > 100 | C=CC(=O)N1CCC(Oc2nc(Nc3cnn(C)c3)ncc2Cl)C1 (single isomer, unassigned) [II-11 (Enantiomer 2), 1-(3-((5-chloro-2-((1-methyl-1H-pyrazol-4-yl)amino)pyrimidin-4-yl)oxy)pyrrolidin-1-yl)prop-2-en-1-one]
27 | > 100 | C=CC(=O)N[C@@H]1CCC[C@@H](Nc2nc(Nc3cnn(C)c3)ncc2Cl)C1 (single isomer, unassigned) [I-106 (Enantiomer 1)]
28 | > 100 | C=CC(=O)N[C@@H]1CCC[C@H](Nc2nc(Nc3cnn(C)c3)ncc2Cl)C1 (single isomer, unassigned) [I-105 (Enantiomer 4)]
29 | > 100 | C=CC(=O)NC1CCCC(Oc2nc(Nc3cnn(C)c3)ncc2Cl)C1 (single isomer, unassigned) [I-88 (Isomer 1), N-(3-((5-chloro-2-((1-methyl-1H-pyrazol-4-yl)amino)pyrimidin-4-yl)oxy)cyclohexyl)acrylamide]
30 | > 100 | C=CC(=O)N(C)c1ccc(F)c(Nc2nc(Nc3cnn(C)c3)ncc2Cl)c1 [Compound I-110, N-(3-((5-chloro-2-((1-methyl-1H-pyrazol-4-yl)amino)pyrimidin-4-yl)amino)-4-fluorophenyl)-N-methylacrylamide]
31 | > 100 | C=CC(=O)N1CCC(Oc2nc(Nc3cnn(C)c3)ncc2Cl)C1 (single isomer, unassigned) [II-10 (Enantiomer 1), 1-(3-((5-chloro-2-((1-methyl-1H-pyrazol-4-yl)amino)pyrimidin-4-yl)oxy)pyrrolidin-1-yl)prop-2-en-1-one]
32 | > 100 | C=CC(=O)N1CCC(Nc2nc(Nc3cnn(C)c3)ncc2Cl)CC1 [II-8, 1-(4-((5-chloro-2-((1-methyl-1H-pyrazol-4-yl)amino)pyrimidin-4-yl)amino)piperidin-1-yl)prop-2-en-1-one]
33 | > 100 | C=CC(=O)N[C@H]1CCC[C@H](Nc2nc(Nc3cnn(C)c3)ncc2Cl)C1 (single isomer, unassigned) [I-107 (Enantiomer 2)]
34 | 10 to 100 | C=CC(=O)Nc1cccc(Nc2nc(Nc3nc(C)cs3)ncc2Cl)c1 [Compound I-124, N-(3-((5-chloro-2-((4-methylthiazol-2-yl)amino)pyrimidin-4-yl)amino)phenyl)acrylamide]
35 | > 100 | C=CC(=O)N1CCCC(CNc2nc(Nc3cnn(C)c3)ncc2Cl)C1 (centres unmarked) [II-9, 1-(3-(((5-chloro-2-((1-methyl-1H-pyrazol-4-yl)amino)pyrimidin-4-yl)amino)methyl)piperidin-1-yl)prop-2-en-1-one]
